Consider 20 compounds from ChEMBL document CHEMBL4390699, “Design, synthesis and biological evaluation of novel antitumor spirodihydrothiopyran-oxindole derivatives” (Bioorg Med Chem Lett, 2019).

As a reminder, the IC50 is the concentration at which inhibition is half-maximal. Lower therefore signals greater potency in that assay. Broadly, the Ki is a dissociation constant, usually derived from enzyme kinetics or from competition with a known ligand. Higher therefore signals lower affinity.

The subject of test [1] is MCF7. Kind of test: Antiproliferative activity against human MCF7 cells assessed as inhibition of cell growth at 10 uM measured after 24 hrs by CCK8 assay relative to control. The settings on record: MCF7, 24 h, read-out: GI. It is filed as functional. (In general: Tetrazolium dyes change colour on reduction, which living cells bring about.)
The test system of test [2] is A549. Description: Antiproliferative activity against human A549 cells measured after 24 hrs by CCK8 assay. Format: functional, cell-based. The settings on record: A549, 24 h.
Test [3] concerns A549. Kind of test: Antiproliferative activity against human A549 cells assessed as inhibition of cell growth at 10 uM measured after 24 hrs by CCK8 assay relative to control. It is filed as functional. The conditions noted are these: A549, 24 h, read-out: GI.
Test [4] relates to MCF7. Description: Antiproliferative activity against human MCF7 cells measured after 24 hrs by CCK8 assay. Format: functional, cell-based. The conditions noted are these: MCF7, 24 h.
The subject of test [5] is HCT-116. Description: Antiproliferative activity against human HCT116 cells measured after 24 hrs by CCK8 assay. Format: functional, cell-based. The settings on record: HCT-116, 24 h.
The subject of test [6] is HCT-116. Description: Antiproliferative activity against human HCT116 cells assessed as inhibition of cell growth at 10 uM measured after 24 hrs by CCK8 assay relative to control. Format: functional. The settings on record: HCT-116, 24 h, read-out: GI.
The test system of test [7] is A549. Description: cells. The conditions noted are these: Homo sapiens, A549, 48 h, read-out: Activity.
Description: Induction of apoptosis in human A549 cells assessed as viable cells at 10 uM measured after 48 hrs by annexin V-FITC/propidium iodide staining based flow cytometry (Rvb = 92.9%)
For test [8], the system named is A549. Description: Cell cycle arrest in human A549 cells assessed as increase in accumulation at G0/G1-phase measured after 24 hrs by DNA-staining solution based flow cytometry. It is filed as functional. For orientation: A flow cytometer gives signals particle by particle.
Test [9] concerns A549. Description: Cell cycle arrest in human A549 cells assessed as decrease in accumulation at S-phase measured after 24 hrs by DNA-staining solution based flow cytometry. Format: functional.
For test [10], the target named is E3 ubiquitin-protein ligase Mdm2 (Homo sapiens, UniProt Q00987). Description: Inhibition of PMDM6-F probe binding to MDM2 (1 to 118 residues) (unknown origin) preincubated for 30 mins followed by PMDM6-F addition and measured after 1 hr fluorescence polarization assay. (Polarisation of emitted light reports the rotation of a fluorescent probe.)
The subject of test [11] is A549. Description: cells. The settings on record: Homo sapiens, A549, 48 h, read-out: Activity. The source holds these as a separate data set.
Description: Induction of apoptosis in human A549 cells assessed as viable cells at 5 uM measured after 48 hrs by annexin V-FITC/propidium iodide staining based flow cytometry (Rvb = 92.9%)
Test [12] deals with A549. Description: Cell cycle arrest in human A549 cells assessed as decrease in accumulation at G2/M-phase measured after 24 hrs by DNA-staining solution based flow cytometry. It is filed as functional.
A further test concerns HUVEC. Description: Cytotoxicity against HUVEC measured after 24 hrs by CCK8 assay. Format: cell-based. The settings on record: Homo sapiens.

E3 ubiquitin-protein ligase Mdm2, sequence (Q00987 whole entry, the tested form may be a part): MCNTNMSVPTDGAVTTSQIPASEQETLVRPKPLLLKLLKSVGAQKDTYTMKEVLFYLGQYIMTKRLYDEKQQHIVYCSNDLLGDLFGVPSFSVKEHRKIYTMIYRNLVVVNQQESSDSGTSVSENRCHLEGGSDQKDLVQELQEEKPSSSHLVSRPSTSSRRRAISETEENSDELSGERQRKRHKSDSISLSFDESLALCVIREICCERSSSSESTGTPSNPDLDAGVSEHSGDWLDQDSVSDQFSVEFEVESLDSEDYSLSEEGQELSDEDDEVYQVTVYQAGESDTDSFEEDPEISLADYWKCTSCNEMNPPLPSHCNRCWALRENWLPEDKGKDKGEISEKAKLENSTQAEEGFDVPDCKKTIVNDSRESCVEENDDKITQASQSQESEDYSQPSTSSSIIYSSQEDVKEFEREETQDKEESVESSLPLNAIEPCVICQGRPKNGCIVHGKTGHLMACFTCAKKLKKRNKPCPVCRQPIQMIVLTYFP

As to `O=C(C1=CC[C@@H](c2ccc(Br)cc2)[C@@]2(S1)C(=O)Nc1cccc(Br)c12)c1ccccc1`, the results for the inhibition of growth at 10 µM in the test on MCF7 [1], in the test with A549 [3] and in the test on HCT-116 [6] were 52.7%, 88.1% and 86%, respectively. In addition, the IC50 in the test with A549 [2] was found to be 1.5 µM; in the test on MCF7 [4], 8.8 µM; with HCT-116 [5] it was 5.9 µM.

Regarding `O=C(C1=CC[C@@H](c2ccc(Br)cc2)[C@@]2(S1)C(=O)Nc1ccccc12)c1ccccc1`, the viability at 10 µM in the test with A549 [7] is 29%. For the same compound, the Activity result with A549 [8], in the test with A549 [9] and in the test on A549 [12] was “Dose-dependent effect” throughout. The compound further yielded a Ki in test [10] of 19.8 µM. In the test on A549 [11], the viability at 5 µM stood at 35.7%. Moreover, the inhibition of growth at 10 µM stood at 69.4% in the test on MCF7 [1], 75.1% in the test on A549 [3] and 91.9% in the test with HCT-116 [6]. Moreover, the IC50 in the test with A549 [2] stood at 2.1 µM; in the test on MCF7 [4], 6.8 µM; in the test with HUVEC, 4.03 µM; in the test with HCT-116 [5] it was 1.7 µM.

For the compound `COc1ccc(C2=N[C@H](c3ccc(Cl)cc3)[C@H](c3ccc(Cl)cc3)N2C(=O)N2CCNC(=O)C2)c(OC(C)C)c1`, the viability at 10 µM with A549 [7] stood at 44.1%. Further, the Activity result in the test with A549 [8] and in the test on A549 [9] was “Dose-dependent effect” each time. For the same compound, the viability at 5 µM in the test with A549 [11] is 45.9%. Also, the values for the inhibition of growth at 10 µM with MCF7 [1], in the test with A549 [3] and with HCT-116 [6] were 32.8%, 47% and 64.4%, respectively. In addition, the results for the half-maximal inhibitory concentration (IC50) in the test with A549 [2] and in the test with MCF7 [4] were 2.4 µM and 12.1 µM, respectively.

Regarding `O=C(C1=CC[C@@H](c2ccc(F)cc2)[C@@]2(S1)C(=O)Nc1cccc(Br)c12)c1ccccc1`, the values for the inhibition of growth at 10 µM in the test on MCF7 [1], with A549 [3] and in the test with HCT-116 [6] were 21.9%, 84.4% and 44.1%, respectively. The compound further displayed a 50% inhibitory concentration (IC50) with A549 [2] of 4.9 µM.

As to `O=C(C1=CC[C@@H](c2ccc(F)cc2)[C@@]2(S1)C(=O)Nc1ccccc12)c1ccccc1`, the figures for the inhibition of growth at 10 µM in the test on MCF7 [1], in the test with A549 [3] and with HCT-116 [6] were 58.8%, 72.3% and 91.1%, respectively. For the same compound, the half-maximal inhibitory concentration (IC50) in the test with A549 [2] turned out to be 6.3 µM; with MCF7 [4], 14.1 µM; with HCT-116 [5] it was 2 µM.

Regarding `O=C(C1=CC[C@@H](c2ccccc2)[C@@]2(S1)C(=O)Nc1cccc(Br)c12)c1ccccc1`, the inhibition of growth at 10 µM stood at 24.3% in the test with MCF7 [1], 78.5% in the test on A549 [3] and 45% with HCT-116 [6]. Besides, the IC50 in the test on A549 [2] was found to be 3.1 µM.

On to `COc1ccc(C(=O)C2=CC[C@@H](c3ccc([N+](=O)[O-])cc3)[C@@]3(S2)C(=O)Nc2cccc(Br)c23)cc1`, for which the inhibition of growth at 10 µM worked out at 28.1% in the test on MCF7 [1], 73.9% in the test on A549 [3] and 48.1% with HCT-116 [6]. In addition, the IC50 with A549 [2] was found to be 13.9 µM.

For the compound `COc1ccc(C(=O)C2=CC[C@@H](c3ccccc3)[C@@]3(S2)C(=O)Nc2cccc(Br)c23)cc1`, the inhibition of growth at 10 µM was found to be 36.9% in the test on MCF7 [1], 74.3% in the test with A549 [3] and 68.4% with HCT-116 [6]. Moreover, the values for the IC50 in the test on A549 [2] and in the test on HCT-116 [5] were 6 µM and 8.4 µM, respectively.

`O=C(C1=CC[C@@H](c2ccccc2)[C@@]2(S1)C(=O)Nc1cc(Br)ccc12)c1ccccc1`: the inhibition of growth at 10 µM came to 54.5% in the test on MCF7 [1], 67.6% in the test on A549 [3] and 80% with HCT-116 [6]. The IC50 in the test with A549 [2] came to 4.8 µM; in the test with MCF7 [4], 10.1 µM; in the test on HCT-116 [5], 9.6 µM.

Turning to `CC[C@@H]1CC=C(C(=O)c2ccc(OC)cc2)S[C@@]12C(=O)Nc1cccc(Br)c12`, the inhibition of growth at 10 µM in the test with MCF7 [1] was found to be 72.9%; in the test with A549 [3] it was 46.9%; in the test on HCT-116 [6], 70.8%. Also, the half-inhibitory concentration (IC50) amounted to 10.3 µM in the test on A549 [2] and 13.3 µM in the test with MCF7 [4].

For `O=C(C1=CC[C@@H](c2ccccc2)[C@@]2(S1)C(=O)Nc1ccc(F)cc12)c1ccccc1`, the inhibition of growth at 10 µM with MCF7 [1] came out at 63.9%; with A549 [3] it was 74.2%; in the test with HCT-116 [6], 88.4%. The IC50 with A549 [2] is 4.3 µM; with MCF7 [4], 5.5 µM; in the test with HCT-116 [5] it was 9.9 µM.

For `COc1ccc(C(=O)C2=CC[C@@H](c3ccc(OC)cc3)[C@@]3(S2)C(=O)Nc2cccc(Br)c23)cc1`, the values for the inhibition of growth at 10 µM with MCF7 [1], in the test on A549 [3] and with HCT-116 [6] were 25.9%, 40.9% and 14.3%, respectively.

In test [10], `O=C(C1=CC[C@@H](c2ccccc2)[C@@]2(S1)C(=O)Nc1cccc(Br)c12)c1ccco1` registered an inhibitory constant (Ki) of 43.8 µM. For the same compound, the inhibition of growth at 10 µM with MCF7 [1] came to 92.8%; in the test on A549 [3] it was 87.1%; with HCT-116 [6], 92.1%. Further, the values for the IC50 with A549 [2], in the test with MCF7 [4] and in the test with HCT-116 [5] were 4.5 µM, 4.8 µM and 1.9 µM, respectively.

With `O=C(C1=CC[C@@H](c2ccc(Cl)cc2)[C@@]2(S1)C(=O)Nc1ccccc12)c1ccccc1`, the inhibition of growth at 10 µM in the test on MCF7 [1] was determined as 72.5%; in the test with A549 [3] it was 72.5%; in the test with HCT-116 [6], 89.1%. Besides, the results for the IC50 with A549 [2], with MCF7 [4] and with HCT-116 [5] were 3.9 µM, 8.5 µM and 2.8 µM, respectively.

Take `O=C(C1=CC[C@@H](c2ccccc2)[C@@]2(S1)C(=O)Nc1ccccc12)c1ccccc1`: the inhibition of growth at 10 µM in the test on MCF7 [1] stood at 51.7%; in the test on A549 [3] it was 57.6%; in the test with HCT-116 [6], 87.6%. In addition, the IC50 in the test on A549 [2] was determined as 6.3 µM; in the test with MCF7 [4], 10.7 µM; with HCT-116 [5] it was 9.4 µM.

`CCC[C@@H]1CC=C(C(=O)c2ccc(OC)cc2)S[C@@]12C(=O)Nc1cccc(Br)c12`: the values for the inhibition of growth at 10 µM with MCF7 [1], in the test with A549 [3] and in the test on HCT-116 [6] were 19.8%, 44% and 22.7%, respectively.

Turning to `O=C(C1=CC[C@@H](c2ccccc2)[C@@]2(S1)C(=O)Nc1cccc(Br)c12)c1ccc(Br)cc1`, the values for the inhibition of growth at 10 µM in the test with MCF7 [1], with A549 [3] and in the test with HCT-116 [6] were 77.7%, 93.1% and 67.3%, respectively. Also, the 50% inhibitory concentration (IC50) in the test with A549 [2] is 3.3 µM; in the test on MCF7 [4], 8.2 µM; in the test with HCT-116 [5], 2.6 µM.

For the compound `O=C(C1=CC[C@@H](c2ccccc2)[C@@]2(S1)C(=O)Nc1cccc(Cl)c12)c1ccccc1`, the inhibition of growth at 10 µM in the test with MCF7 [1] was 43.9%; with A549 [3], 65.4%; in the test on HCT-116 [6], 48.8%. For the same compound, the half-maximal inhibitory concentration (IC50) in the test on A549 [2] and with HCT-116 [5] was 9.9 µM in each case.

Consider `COc1ccc(C(=O)C2=CC[C@@H](c3ccc(Br)cc3)[C@@]3(S2)C(=O)Nc2cccc(Br)c23)cc1`, for which the inhibition of growth at 10 µM is 18.5% in the test with MCF7 [1], 19% with A549 [3] and 10.8% in the test on HCT-116 [6].

As to `O=C(C1=CC[C@@H](c2ccccc2)[C@@]2(S1)C(=O)Nc1cc(F)ccc12)c1ccccc1`, the inhibition of growth at 10 µM stood at 23.9% in the test with MCF7 [1], 66% in the test on A549 [3] and 45.1% in the test with HCT-116 [6]. The same compound showed an IC50 in the test on A549 [2] of 6.2 µM.
